{"source": "paper PMC4434464", "about": "(ACS Medicinal Chemistry Letters, 2015)", "key": {"[1]": {"tested_on": "H3K27 methyl mark in tumor tissue", "test": "PD in KARPAS-422 tumor samples, H3K27 methyl mark", "assay_type": "in vivo, SCID mice", "conditions": "day 7, 250 and 500 mg/kg, over the 12 h time-course"}, "[2]": {"test": "liver microsome clearance, rat", "assay_type": "in vitro ADME", "conditions": "rat liver microsomes"}, "[3]": {"test": "plasma exposure in the KARPAS-422 xenograft study", "assay_type": "in vivo, SCID mice", "conditions": "250 mg/kg BID, D-tartrate salt, day 7"}, "[4]": {"tested_on": "H3K27me3 in WSU-DLCL2 cells", "test": "ELISA of cellular H3K27me3 methyl mark reduction", "conditions": "read-out: ELISA H3K27me3 IC50; WSU-DLCL2 (Y641F mutant-bearing) cells; n = 20"}, "[5]": {"test": "liver microsome clearance, mouse", "assay_type": "in vitro ADME", "conditions": "mouse liver microsomes"}, "[6]": {"tested_on": "subcutaneous EZH2 mutant KARPAS-422 human DLBCL xenografts", "test": "KARPAS-422 xenograft antitumor activity", "assay_type": "in vivo, SCID mice", "conditions": "250 and 500 mg/kg BID orally, 21 days"}, "[7]": {"test": "plasma protein binding, equilibrium dialysis, mouse", "assay_type": "in vitro ADME"}, "[8]": {"tested_on": "WSU-DLCL2 cells", "test": "predicted efficacious plasma exposure", "conditions": "human; plasma protein binding corrected LCC"}, "[9]": {"test": "plasma protein binding, equilibrium dialysis, rat", "assay_type": "in vitro ADME"}, "[10]": {"tested_on": "H3K27 methylation in bone marrow", "test": "7-day BID PD, H3K27 methylation in bone marrow", "assay_type": "in vivo, mouse", "conditions": "500 mg/kg BID, end of day 7"}, "[11]": {"test": "liver microsome clearance, human", "assay_type": "in vitro ADME", "conditions": "human liver microsomes"}, "[12]": {"test": "rat oral PK of D-tartrate salt", "assay_type": "in vivo", "conditions": "for time above LCC: p.o., D-tartrate salt; for AUC(0-inf) / Cmax / Tmax: plasma, po"}, "[13]": {"test": "single dose oral PK in SCID mice", "assay_type": "in vivo"}, "[14]": {"test": "7-day BID PK study, plasma exposure and tolerability", "assay_type": "in vivo, mouse"}, "[15]": {"tested_on": "WSU-DLCL2 cells", "test": "11-day proliferation assay, LCC", "conditions": "n = 4"}, "[16]": {"test": "plasma protein binding, equilibrium dialysis, human", "assay_type": "in vitro ADME"}}, "note": "Values joined by “and” are separate entries in the source; they are usually repeats but may differ in a detail not shown here. Identical values can stand only once. “Also recorded” adds a separate entry of the source.", "data": [{"smiles": "CCN(c1cc(C#CCN2CCOCC2)cc(C(=O)NCc2c(C)cc(C)[nH]c2=O)c1C)[C@H]1CC[C@H](N(C)CCOC)CC1", "note": "[EPZ011989, N-((4,6-Dimethyl-2-oxo-1,2-dihydropyridin-3-yl)methyl)-3-(ethyl((trans)-4-((2-methoxyethyl)(methyl)amino)cyclohexyl)amino)-2-methyl-5-(3-morpholinoprop-1-yn-1-yl)benzamide]", "values": [{"measurement": "H3K27 methyl mark in tumor samples", "setting": "[1]", "result": "robust H3K27 methyl mark reduction"}, {"measurement": "percent hepatic extraction (%Eh)", "setting": "[2]", "result": "< 14", "unit": "%"}, {"measurement": "time over the predicted efficacious plasma levels", "setting": "[3]", "result": "≥ 6", "unit": "h"}, {"measurement": "IC50", "setting": "[4]", "result": "94 ± 48", "unit": "nM"}, {"measurement": "percent hepatic extraction (%Eh)", "setting": "[5]", "result": "< 11", "unit": "%"}, {"measurement": "effect on mean body weights", "setting": "[6]", "result": "nominal effect on mean body weights"}, {"measurement": "antitumor activity", "setting": "[6]; D-tartrate salt, SCID mice", "result": "significant tumor regression at both doses; also recorded: Robust tumor growth inhibition"}, {"measurement": "fraction unbound", "setting": "[7]", "result": "0.8 ± 0.11"}, {"measurement": "predicted efficacious plasma exposure", "setting": "[8]", "result": "214 nM and 130 ng/mL"}, {"measurement": "fraction unbound", "setting": "[9]", "result": "0.91 ± 0.06"}, {"measurement": "H3K27 methyl mark in bone marrow", "setting": "[10]", "result": "complete ablation of the methyl mark"}, {"measurement": "percent hepatic extraction (%Eh)", "setting": "[11]", "result": 29, "unit": "%"}, {"measurement": "time above LCC", "setting": "[12]; 30 mg/kg", "result": 4, "unit": "h"}, {"measurement": "time above LCC", "setting": "[12]; 100 mg/kg", "result": 8, "unit": "h"}, {"measurement": "AUC(0-inf)", "setting": "[12]; 30 mg/kg", "result": 970, "unit": "ng·h/mL"}, {"measurement": "Cmax", "setting": "[12]; 30 mg/kg", "result": 240, "unit": "ng/mL"}, {"measurement": "Tmax", "setting": "[12]; 30 mg/kg", "result": 2, "unit": "h"}, {"measurement": "AUC(0-inf)", "setting": "[12]; 100 mg/kg", "result": 5600, "unit": "ng·h/mL"}, {"measurement": "Cmax", "setting": "[12]; 100 mg/kg", "result": 1600, "unit": "ng/mL"}, {"measurement": "Tmax", "setting": "[12]; 100 mg/kg", "result": 2.7, "unit": "h"}, {"measurement": "AUC(0-inf)", "setting": "[12]; 300 mg/kg", "result": 10000, "unit": "ng·h/mL"}, {"measurement": "Cmax", "setting": "[12]; 300 mg/kg", "result": 2900, "unit": "ng/mL"}, {"measurement": "Tmax", "setting": "[12]; 300 mg/kg", "result": 2.7, "unit": "h"}, {"measurement": "coverage over the LCC (time)", "setting": "[13]; single oral dose 250 mg/kg", "result": "approximately 8 h"}, {"measurement": "coverage over the LCC (time)", "setting": "[13]; single oral dose 500 mg/kg", "result": "approximately 8 h"}, {"measurement": "dose that achieves complete coverage over the predicted efficacious plasma level", "setting": "[14]; 7-day BID study", "result": 500, "unit": "mg/kg BID"}, {"measurement": "tolerability", "setting": "[14]; 125, 250, 500, 750 and 1000 mg/kg BID, 7 days", "result": "well tolerated"}, {"measurement": "LCC (lowest cytotoxic concentration), 11d proliferation WSU-DLCL2", "setting": "[15]", "result": "208 nM and 208 ± 75 (n = 4) nM"}, {"measurement": "fraction unbound", "setting": "[16]", "result": "0.97 ± 0.03"}]}]}
